Measurements as given in patent publication US20260077047A1, “CANCER THERAPY” (TURBINE SIMULATED CELL TECHNOLOGIES LTD, priority 2022, published 2026).

What was measured:
Experiment in all cases: ATM inhibition viability assay (CTG) on cells ± NEK-1 knockout
Format in all cases: cell-based
Conditions in all cases: AZD1390 10 μM-0.00152 μM, 7 days, normalized to DMSO
[1] = system: HCC1806 cells ± NEK-1 knockout
Method: (§1) • i. Adhered cells were washed with 1 mL DPBS and trypsinised by addition of trypsin to 0.05% w/v and incubation under standard conditions. • ii. 1 mL cell culture medium was added to the detached cells to inhibit trypsin and suspended cells were centrifuged at 200×g for 5 minutes at room temperature. • iii. The supernatant was discarded and the cells were resuspended in 1 ml cell culture medium and exact cell number was determined using hemocytometer after Trypan blue staining. • iv. Cells were seeded according to table 5 in 90 μl/well in opaque 96-well plates in triplicate. Cells were grown overnight under standard conditions in complete culture medium (see 1c) […].
(§2) • v. Cells were treated with AZD1390 over the concentration range 10 μM-0.00152 μM, prepared by 10-point 3× serial dilutions from a 10 mM DMSO stock. Cells were incubated under standard conditions with the compounds for 7 days with refresh of the medium and drug twice a week. • vi. After the 7 day incubation, CGT assays were performed to assess cell viability.
(§3) Data showing cell viability for NEK1 knockout cell lines and NT cell lines are shown in FIGS. 4A-D. Data are normalized relative to cells treated with DMSO only.

[2] = system: HSC-2 cells ± NEK-1 knockout
Method: as §1, §2, §3

[3] = system: Daoy cells ± NEK-1 knockout
Method: as §1, §2, §3

Measured: effect on cell viability when combined with a NEK-1 knockout

CC(C)n1c(=O)n(C)c2cnc3cc(F)c(-c4ccc(OCCCN5CCCCC5)nc4)cc3c21 [AZD1390]
synergistic effect: [1] | [2] | [3]
